Reference: patent US20220016271A1, “METHODS FOR TREATING CANCER” (The Brigham and Women`s Hospital, Inc., priority 2018, published 2022)

Columns and labels:
A549 (p53 wild type) = type: cell-based; settings: p53 mRNA 1 μg/mL; metformin 4 or 6 mg/mL (FIG. 60)
Method: Experimental Methods. […] Then, the cell viabilities of these cells were measured by Alamar blue assay. […] The cells without receiving any treatments were labeled as the “Control”.

[1] = system: p53-null H1299 liver metastases; experiment: In vivo therapeutic efficacy in p53-null disseminated NSCLC model (liver metastases); set-up: species or system athymic nude mice; settings: mRNA 750 μg/kg IV; everolimus 5 mg/kg oral; five rounds
Method: In vivo therapeutic efficacy in p53-null disseminated NSCLC model. To establish the experimental disseminated metastatic model, ˜1×10^6p53-null H1299 cells in 100 μl of PBS were injected via tail vein into female athymic nude mice. […] The first treatment was performed at Day 0. On Day 15, all the mice were sacrificed, and one liver was randomly selected from each group for H&E staining. The liver section from each group was divided into four regions for calculation of the metastasis numbers (FIG. 55).

p53-null H1299 cells [2] = experiment: Cell viability by AlamarBlue assay; type: cell-based, human
Method: (§1) Cell viability and transfection efficiency of EGFP-mRNA NPs. The p53-null Hep3B cells or H1299 cells were plated in 96-well plates at a density of 3×10^3 cells per well. […] Lip2k was used as a positive control for transfection efficiency comparison with the NPs. Cell viability was tested by AlamarBlue assay, which is a non-toxic assay that can continuously check real-time cell proliferation through a microplate reader (TECAN, Infinite M200 Pro). Absorbance was examined by a 96-well SpectraMax plate reader (Molecular Devices) at 545 nm and 590 nm. To measure the transection efficiency, cells were treated with EGFP-mRNA by NPs or Lip2k for 24 hours, detached with 2.5% EDTAtrypsin, and collected in PBS solution, followed by evaluating GFP expression using flow cytometry (BD Biosystems). The percentages of EGFP-positive cells were calculated and analyzed by Flowjo software.
(§2) Combination index (CI) calculation.

p53-null Hep3B cells [3] = experiment: Cell viability by AlamarBlue assay; type: cell-based, human
Method: as §1, §2

H1299 cells = experiment: Apoptosis detection (Annexin V/PI, flow cytometry); type: cell-based, human; settings: AnnV/PI co-staining
Method: (§3) Apoptosis and cell cycle detection in vitro. We used an FITC Annexin V/Propidium iodide (PI) apoptosis detection kit (BD Biosciences) to detect apoptosis. In brief, 1×10^6 cells were seeded into 6-well plates. After attachment overnight, cells were treated with p53-mRNA NPs for 24 hours before being mixed with 1 ml fresh medium and continuing to culture for another 24 h. All the attached cells together with the floating cells in the medium were harvested, washed with PBS twice, and dispersed in 1× binding buffer solution (ice-cold) at a concentration of 1×10^6 cells/ml. 5 μl of FITC Annexin V and 5 μl of PI were further mixed with 100 μl of the cell suspension. We then incubated the mixture at room temperature for 15 min in a dark environment and performed analysis using the FACS Calibur Flow Cytometer (BD Biosystems). Cells were incubated for 48 hours with empty NPs, naked p53-mRNA, or p53-mRNANPs washed in PBS and fixed with 70% ethanol overnight, then washed in PBS twice and incubated with PI for 30 minutes at 37° C.; cell-cycle fractions (percentage of cells with fractional DNA content in G1, S, and G2/M phases of the cycle) were estimated by flow cytometry and analyzed by Flowjo software.

Hep3B cells = experiment: Apoptosis detection (Annexin V/PI, flow cytometry); type: cell-based, human; settings: AnnV/PI co-staining
Method: as §3

[4] = system: p53-null Hep3B xenografts; experiment: In vivo therapeutic efficacy in p53-null HCC xenograft tumor model; set-up: species or system athymic nude mice; settings: mRNA 750 μg/kg IV; everolimus 5 mg/kg oral; every three days, six treatments
Method: In vivo therapeutic efficacy in p53-null HCC xenograft tumor model. […] The day that first treatment was performed was designated as Day 0. […] The body weights of all the mice were also recorded over this period.
as §2

p53-null Hep3B cells [5] = experiment: Western blot, IF, TEM and GFP-LC3B CLSM analysis of p53, cell cycle, apoptosis, mTOR and autophagy pathways; type: cell-based, human
Method: (§4) Western blot assay. Cells or dissected tumors in each group were lysed in a lysis buffer (1 mM EDTA, 20 mM Tris-HCl pH 7.6, 140 mM NaCl, 1% aprotinin, 1% NP-40, 1 mM phenylmethylsulphonyl fluoride, and 1 mM sodium vanadate), and supplemented with protease inhibitor cocktail (Cell Signaling Technology). Protein concentration was detected by a bicinchoninic acid (BCA) Protein Assay Kit (Pierce). 25 μg of proteins were loaded on 6-12% precast gels (Invitrogen), and then transferred to Immobilon PVDF membranes (Bio-Rad, 162-0176 and 162-0177). The transferred membranes were blocked with 5% bovine serum albumin (BSA) in TBST (150 mM NaCl, 50 mM Tris-HCl at pH 7.4, and 0.1% Tween 20) for 1 hour at room temperature, and were further incubated with primary antibodies overnight at 4° C. The immunoreactive bands were detected with appropriate HRP-conjugated secondary antibodies. Band density was detected by enhanced chemiluminescence (ECL) detection system (Amersham/GE Healthcare).
Immunofluorescent staining and TEM detection. Cells or tumor tissues were fixed with 4% paraformaldehyde (Electron Microscopy Sciences) at room temperature for 15 min, followed by permeabilization in 0.2% Triton X-100-PBS for 10 min. Samples were further incubated with PBS blocking buffer (containing 2% BSA, 2% normal goat serum, and 0.2% gelatin) at room temperature for 30 min. Afterwards, the samples were incubated with primary antibody overnight at 4° C., washed with PBS, and incubated in goat anti-rat-Alexa Fluor 647 (Molecular Probes) in blocking buffer (1:1000 dilution) at room temperature for 60 min. Stained samples were washed with PBS, nuclei were stained using Hoechst 33342 (Molecular Probes-Invitrogen, H1399, 1:2000 dilution in PBS), and the samples were mounted on slides with Prolong Gold antifade mounting medium (Life Technologies). […]
(§5) Quantification of GFP-LC3B puncta. […] A confocal fluorescence microscope was used to observe the fluorescence of GFP-LC3B. To quantify the extent of autophagy, cells showing accumulation of GFP-LC3B in vacuoles or dots were counted. […]

[6] = system: Hep3B-Luc orthotopic tumors; experiment: In vivo therapeutic efficacy in p53-null orthotopic HCC model (bioluminescence); set-up: species or system athymic nude mice; settings: mRNA 750 μg/kg IV; everolimus 5 mg/kg oral; every three days, 4 rounds
Method: In vivo therapeutic efficacy in p53-null orthotopic HCC model. To establish the orthotopic HCC model, luciferase-expressing Hep3B (Hep3B-Luc) cells were used. Six-week-old female athymic nude mice were obtained from Zhejiang Medical Academy Animal Center. Animal studies were conducted following the protocol approved by the Institutional Animal Ethics Committee of Hangzhou Normal University. First, anterior abdominal exposure was made and a cotton swab with iodine volts was used to sterilize this area. A one-centimeter-long midline incision was made along the anterior abdominal wall below the xiphoid after anesthesia by isoflurane, and ˜5×10^6 p53-null Hep3B-Luc cells in 50 μl of PBS were injected into the left lobe of the livers of the athymic nude mice (30 in total). The injection depth was not deeper than 2 mm. The inner and outer layers of the abdominal cavity were sutured one by one after tumor cell inoculation. […] The first treatment was performed at Day 0. On Day 12, all the mice were sacrificed. Mice were monitored for tumor growth by bioluminescent in vivo imaging every 6 days (Day 0, 6, and 12). To do this, these mice were injected intraperitoneally with 150 mg/kg D-luciferin substrate (PerkinElmer, Catalog #122799) and imaged by an IVIS Lumina S5 (PerkinElmer) imaging system.

[7] = system: p53-null Hep3B tumor sections; experiment: In vivo mechanisms (IF, IHC, TUNEL, WB of tumor sections); set-up: species or system athymic nude mice; settings: mouse
Method: In vivo mechanisms underlying the p53-mRNA NP-mediated sensitization to everolimus. […] The mice were sacrificed at 12, 24, 48, or 60 hours after the last injection of p53-mRNANPs, and the tumors were harvested for sections. Mice bearing p53-null Hep3B liver xenografts and intravenously injected with PBS were used as controls and sacrificed at 60 hours after the last injection. The expression of p53 and C-CAS3 was monitored via IF detection. Moreover, tumor sections from both the PBS group and p53-mRNANP group (60 hours after the last injection) were analyzed by IHC. The expression of p53, tumor cell apoptosis markers (BAX, C-CAS3), and proliferation markers (Ki67 and PCNA) was further assessed.
Western blot assay. Cells or dissected tumors in each group were lysed in a lysis buffer (1 mM EDTA, 20 mM Tris-HCl pH 7.6, 140 mM NaCl, 1% aprotinin, 1% NP-40, 1 mM phenylmethylsulphonyl fluoride, and 1 mM sodium vanadate), and supplemented with protease inhibitor cocktail (Cell Signaling Technology). Protein concentration was detected by a bicinchoninic acid (BCA) Protein Assay Kit (Pierce). […] The immunoreactive bands were detected with appropriate HRP-conjugated secondary antibodies. Band density was detected by enhanced chemiluminescence (ECL) detection system (Amersham/GE Healthcare). […]

p53-null H1299 cells [8] = experiment: Western blot, IF, TEM and GFP-LC3B CLSM analysis of p53, apoptosis, mTOR and autophagy pathways; type: cell-based, human
Method: as §4
Immunofluorescent staining and TEM detection. […]
as §5

[9] = increasing everolimus concentrations

## N.N.[Cl][Pt][Cl] [cisplatin]
A549 (p53 wild type)
  cells dead / killed: less than 50%

## CO[C@H]1C[C@@H]2CC[C@@H](C)[C@@](O)(O2)C(=O)C(=O)N2CCCC[C@H]2C(=O)O[C@H]([C@H](C)C[C@@H]2CC[C@@H](OCCO)[C@H](OC)C2)CC(=O)[C@H](C)/C=C(\C)[C@@H](O)[C@@H](OC)C(=O)[C@H](C)C[C@H](C)/C=C/C=C/C=C/1C [everolimus, Everolimus]
[1]
  metastatic nodules in the liver: moderate effects
p53-null H1299 cells [2]; Homo sapiens, NCI-H1299, mRNA 0.415 μg/ml, everolimus 16 nM
  viability at 0.016 µM: > 80%
p53-null H1299 cells [2]; at 64 nM
  cells still alive: over 50%
p53-null H1299 cells [2]; [9]
  cell viability: no significant decrease in cell viability
p53-null Hep3B cells [3]; Homo sapiens, Hep3B, mRNA 0.415 μg/ml, everolimus 32 nM
  viability at 0.032 µM: ~70%
p53-null Hep3B cells [3]; at 64 nM
  cells still alive: over 50%
p53-null Hep3B cells [3]; [9]
  cell viability: no significant decrease in cell viability
H1299 cells
  cell apoptosis: moderate apoptotic cell death
Hep3B cells
  cell apoptosis: moderate apoptotic cell death
[4]
  tumor growth: moderate anti-tumor activity
p53-null Hep3B cells [5]
  autophagy activation (WB, autophagosomes by TEM, GFP-LC3B by CLSM): activation of autophagy
p53-null Hep3B cells [5]; increase of everolimus concentration
  LC3B-2 and LC3B-2/actin ratio (WB): upregulation of LC3B-2 and higher LC3B-2/actin ratios
p53-null Hep3B cells [5]; [9]
  mTOR pathway targets (p-mTOR and p-p70S6K; WB): substantially blocked
[6]
  orthotopic tumor growth / burden (bioluminescence): somewhat inhibited the growth of orthotopic tumors
[7]
  autophagy in tumors (LC3B-2 relative to actin, BECN1; WB): induced autophagy
p53-null H1299 cells [8]
  autophagy activation (WB, autophagosomes by TEM, GFP-LC3B by CLSM): activation of autophagy
p53-null H1299 cells [8]; [9]
  mTOR pathway targets (p-mTOR and p-p70S6K; WB): substantially blocked
